Source: patent publication US5367062A, “Disubstituted and deoxydisubstituted derivatives of α-d-lyxofuranosides having anti-inflammatory and anti-proliferative activity” (Medicarb Inc., priority 1992, dated 1994)
Where a name gives a salt, the structure may show the parent alone.

Tests used:
[1] = tested on: rheumatoid arthritis; settings: cited from earlier work
[2] = tested on: mouse spleen cells; assay: Concanavalin A assay (mouse spleen cell mitogen induced blastogenesis); type: cell-based; settings: 72 h, estimated, Con-A 1.25 μg/ml, 3 days, MTT
Excerpt: iii Concanavalin A assay (the mouse spleen cell mitogen induced blastogenesis).
(§1) The MLR assay measures the effects of a study compound on the activation and antigen presentation of T-lymphocytes, therefore determining immunomodulatory properties. The mouse spleen cell mitogen-induced blastogenesis and the BUD-8 human fibroblast proliferation assays measure the effects of the compounds of the present invention on cellular proliferation of cells involved in the pathogenesis of autoimmune diseases. These two assays are appropriate as screens to ascertain anti-inflammatory and/or autoimmune diseases.
It is known that the induction and maintenance of most inflammatory diseases are typically due to the unrestricted activity of T-lymphocytes. Therefore, it is advantageous to identify compounds which are modulators of T-lymphocyte activity for eventual use in the regulation of inflammatory diseases, including acquired immune deficiency syndrome, psoriasis, systemic lupus, erythromatosus, and rheumatoid arthritis.
A simple method is used to screen compounds for their ability to modulate T-lymphocyte activity which comprises assessing the capacity of the compounds to alter the activation of murine spleen cells in response to T-lymphocyte mitogen activators, such as Conconavalin-A (Con-A). The method used to measure the effects of the compounds of the present invention on the blastogenic response of spleen cells to the T-lymphocyte mitogen (Con-A) is as follows:
The response of a mouse spleen cells to the T cell mitogen ConA is a classical assay. In this assay, mice were euthanized by cervical dislocation and their spleens removed surgically. A single cell suspension of the spleens was prepared in culture medium (RPMI-1640 with hepes, supplemented with 10% calf serum, 2 mM glutamine, 500 units penicillin/streptomycin, and 4×10^-5 M 2-mercaptoethanol) using a Teflon pestle. The cells were centrifuged at 1500 RPM and the pellets resuspended in ACT (0.15 M Tris, 0.14 M Ammonium chloride, pH 7.2) in order to lyse the red blood cells. After a five minutes incubation in 37° C. waterbath, the cells were washed and resuspended in culture medium. The splenic lymphocytes were counted using an electronic Coulter Counter and diluted to 5.0×10^6 cells/mi.
The test articles were diluted in culture medium to the appropriate concentrations. Aliquots 100 μl were distributed to triplicate wells in a 96-well microtiter plate. 50 μl of lymphocytes (2.5×10^5 cells) were added to each well. Control wells with vehicle and wells with media were also run. Plates were incubated for one hour at 37° C. 50 μl of Con-A (5 μl/ml) were then added to the wells to result in a final concentration of 1.25 μg/ml. After incubation at 37° C. with 5% carbon dioxide for 3 days, proliferation was measured by adding 20 μl of MTT (10 mg/mlin PBS) [3-(4,5-dimethyl-thiazol-2-yl)-2,5-diphenyltetrazoliumbromidel to each well. Plates were incubated for 4 hours at 37° C., after which 180 μl of 10% SDS in PBS were added. After an overnight incubation, the optical density (OD) of each well was read using a Molecular Devices microplate reader at 570-650 nm.
(§2) Duplicate cultures without Con-A were also set up. After 3 days of incubation, supernatants were assayed for lactate dehydrogenase activity to determine the viability of the cells, which is an indication of the toxicity of the test article on the splenic lymphocytes. 0.1 ml of supernatant was mixed with 0.1 ml of the LDH substrate mixture which contains 5.4×10^-2 M L(+) lactate, 6.6×10^-4 M 2-p-iodophenyl-3-p-nitrophenyl tetrazolium chloride, 2.8×10^-4 M phenazine methosulfate, 1.3×10^-3 M AND, and 0.2 M Tris buffer, pH 8.2. Plates were read immediately for 5 minutes at 490 nm using a Molecular Devices microplate reader.
The mean for each test article treated group was determined and compared to the mean of the control group. The percent change from the control was calculated, and the IC50 was estimated. […]

[3] = tested on: T cells (BALB/CBYJ responder spleen cells with C57BL/6J stimulator spleen cells); assay: Mixed lymphocyte response (MLR); type: cell-based; settings: Mus musculus, T-cell, 120 h; estimated; 5 days incubation; MTT
Excerpt: i Mixed lymphocyte response (MLR).
as §1
The MLR is a classical assay used to measure T cell function by studying the proliferation response of T cells which are activated in vitro by genetically disparate stimulator cells. This is accomplished by co-culturing spleen cells from two different strains of mice. Splenic T cell proliferation occurs as a result of cellular activation signals generated by the ongoing cellular interactions.
In performing MLR assays, BALB/CBYJ mice were euthanized by cervical dislocation and their spleens removed. Single cell suspensions were prepared in culture medium (RPMI-1640 with hepes supplemented with 10% calf serum, 2 mM glutamine, 500 units penicillin/streptomycin and 4×10^-5 M 2-mercaptoethanol) using a Teflon pestle. The cells were centrifuged at 1500 RPM and the pellets resuspended in ACT (0.15 M Tris, 0.14 M ammonium chloride, pH 7.2 ) in order to lyse the red blood cells. After a 5 minutes incubation at 37° C. waterbath, the cells were washed and resuspended in culture medium. The splenic lymphocytes were counted. C57BL/6J spleen cells, which were used as stimulator cells, were prepared in the same way. The stimulator cells were treated with 50 μm/ml of mitomycin C for 20 minutes at 37° C., then washed five times in culture medium. The proliferative response were measured by culturing 5×10^5 responder spleen cells with 5×10^5 stimulator cells in 96-well microtiter plates in the presence or absence of test article or vehicle (DMSO). Syngeneic control cultures using mitomycin C treated normal BALB/C spleen cells as the stimulator cells were also run. All cultures were run in triplicate.
Solutions of compounds of the present invention in DMSO were prepared at a stock concentration of 300 mM. Solutions were made in a culture medium to a concentration of 1, 10, 30, 100, and 300 μM. The vehicle DMSO was used as a negative control.
After incubation for 5 days at 37° C. with 5% carbon dioxide, the amount of cell proliferation was measured by adding 20 μl of MTT (10 mg/ml in PBS) (3-[4,5-dimethylthiazol-2-yl]-2,5-diphenyltetrazolium bromide) to each well. plates were incubated for 4 hours at 37° C., after which 180 μl of supernatant was removed and 180 μl of 10% SDS in PBS was added. After an overnight incubation, the optical density (OD) of each well was read on a Molecular Devices microplate reader at 570-650 nm.
The results were determined by calculating the difference between the means of the allogeneic cultures and the means of the syngeneic cultures for each test compound concentration. Differences of the test article groups were compared to the difference of the control group. The percent change from the control was determined and an IC50 estimated. The criteria used to establish activity levels were:
Sixteen (16) novel compounds were assayed for their ability to modulate a Mixed Lymphocyte Response in vitro. The test compounds were added to MLR cultures to give final concentrations of 1, 10, 30, 100, and 300 μm. The responses observed in the test article treated wells were compared to the control wells. […] Based on the estimated IC50 all the test compounds were strong inhibitors of the MLR.

[4] = tested on: BUD-8 human fibroblast; assay: BUD-8 human cell line fibroblast proliferation assay; type: cell-based; settings: 72 h, estimated, BUD-8 cells, 3 days, MTT
Excerpt: ii BUD-8 human cell line fibroblast proliferation assay.
as §1
The skin cell fibroblast line, BUD-8, was originally derived from the normal skin of a person and can now be obtained from the American Type Culture Collection, Rockville, Md. The concentration of the compounds which were used in this assay were: 1, 10, 30, 100, and 300 μM. The vehicle was used as the negative control. Test compounds were prepared in DMSO at a stock concentration of […]. Appropriate dilutions were made in culture medium.
In this assay BUD-8 cells were collected, counted, and diluted to 2×10^4 cells/ml. 0.1 ml was plated per well to give 2×10^3 cells/well. The compounds of the present invention were diluted in culture medium to the appropriate concentrations. Aliquotes of 100 μl were distributed to triplicate wells. Control wells with vehicle and wells with media were also run. After a three day incubation at 37° C. with 5% carbon dioxide, proliferation was measured by adding 20 μl of MTT (10 mg/ml in PBS) (3-[4,5-dimethyl thiazol-2-yl]-2,5diphenyl-tetrazolium bromide) to each well. Plates were incubated for 4 hours at 37° C., after which 180 μl of 10% SDS in PBS were added. After an overnight incubation, the optical density (OD) of each well was read using a Molecular Devices microplate reader at 570-650 nm.
as §2, with “cultures” for “cultures without Con-A”, “set up to measure viability.” for “set up.”, “dehydrogenase (LDH)” for “dehydrogenase”, “the BUD-8 cells.” for “the splenic lymphocytes.”, “of supernatent” for “of supernatant”, “Tris buffer. PH” for “Tris buffer, pH”
The mean for each test article treated group was determined and compared to the mean of the control group. The percent change from the control was calculated, and the IC50 estimated. The criteria used to establish activity levels were:
Sixteen (16) test articles were assayed for their ability to inhibit fibroblast proliferation. The test article were added to BUD-8 cell cultures to give final concentrations of 1, 10, 30, 100, and 300 μM. The proliferation observed in the test article treated wells were compared to the DMSO control wells.

[5] = tested on: various tumor cell lines, derived from seven cancer types; assay: Tumor cell line screens (leukemia, melanoma, lung, colon, renal, ovarian, brain cancer); type: cell-based; settings: average over tumor cell lines; read-out: GI (Average GI50) (converted)
Protocol: The compounds of the present invention were also tested against various tumor cell lines, derived from seven cancer types. These include leukemia, melanoma, lung cancer, colon cancer, renal cancer, ovarian cancer, and brain cancer. Most of the compounds have shown significant activity in various screens, particularly against colon cancer and melanoma.

In the case of `CN(C)CCCO[C@@H]1[C@H]2OC(C)(C)O[C@H]2O[C@@H]1[C@H](O)CO` [Amiprilose. HCl, 1,2-0-isopropylidene-3-0-3'-(N',N'-dimethylaminopropyl)-α-D-glucofuranose], the “Anti-inflammatory activity (in words)” value ([1]; in vivo) is listed as “known to have anti-inflammatory activity” and the “Utility in managing the signs and symptoms of rheumatoid arthritis (in words)” value ([1]; late Phase III clinical trials) is listed as “demonstrated utility in managing the signs and symptoms of rheumatoid arthritis”.

`CCCCCCCCCOCCCO[C@H]1O[C@H](COCCN2CCCC2)[C@@H]2OC(C)(C)O[C@H]12` [V, n-Nonyloxypropyl 2,3-0-(1-methlethylidene)-5-0-N'-ethylpyrrolidinyl-α-D-lyxofuranoside] showed an IC50 [2] of 2.9 µM, an IC50 [3] of under 1 µM and an IC50 [4] of 28 µM. It also gave a GI50 [5] of 5.62 µM.

For `CCCCCCCCCOCCCO[C@H]1O[C@H](COCCN2CCCCC2)[C@@H]2OC(C)(C)O[C@H]12` [VI, n-Nonyloxypropyl 2,3-0-(1-methlethylidene)-5-0-N'-ethylpiperidinyl-α-D-lyxofuranoside], the IC50 [2] was 2.7 µM, the IC50 [3] was 0.5 µM and the IC50 [4] was over 100 µM.

`CCCCCCCCCOCCCO[C@H]1O[C@H](CN2CCCC2)[C@@H]2OC(C)(C)O[C@H]12` [XVI] gave an IC50 [2] of 3.5 µM, an IC50 [3] of under 1 µM and an IC50 [4] of 58 µM. The GI50 [5] was 5.13 µM.

`CCCCCCCCCOCCCO[C@H]1O[C@H](CNCCCN2CCCC2)[C@@H]2OC(C)(C)O[C@H]12` [XXIV, n-Nonyloxypropyl 5-deoxy-2,3-0-(1-methylethylidene)-5-aminopropylpyrrolidinyl-α-D-lyxofuranoside] showed an IC50 [2] of 2.5 µM, an IC50 [3] of 0.85 µM and an IC50 [4] of 16 µM.

For `CCCCCCCCCNC[C@H]1O[C@H](OCCCc2ccccc2)[C@H]2OC(C)(C)O[C@H]21` [XXIX, Phenylpropyl 5-deoxy-2,3-0-(1-methylethylidene)-5-aminononyl-α-D-lyxofuranoside], the IC50 [2] was 5 µM, the IC50 [3] was 1.5 µM and the IC50 [4] was 20 µM. For the same compound, the GI50 [5] was 32.4 µM.

`CC1(C)O[C@@H]2[C@@H](OCCCc3ccccc3)O[C@H](CN3CCCC3)[C@@H]2O1` [XXV, Phenylpropyl 5-deoxy-2,3-0-(1-methylethylidene)-5-pyrrolidinyl-α-D-lyxofuranoside] gave an IC50 [2] of 25 µM, an IC50 [3] of 12 µM and an IC50 [4] of 200 µM. It also gave a GI50 [5] of 95.5 µM.

For `CN(C)CCCOC[C@H]1O[C@H](OCCCc2ccccc2)[C@H]2OC(C)(C)O[C@H]21` [X], the IC50 [2] was 55 µM, the IC50 [3] was under 1 µM and the IC50 [4] was 299 µM. The GI50 [5] was 91.2 µM.
